Data taken from US20010046994A1, “Hexahydrotriazine compounds and insecticides” (priority 1989, published 2001).
Where two headings read alike, the source gives them in different places.

Columns and labels:
[1] = tested on: green rice leafhopper which had acquired resistance to chemicals; assay: Rice seedling dip test, mortality of resistant green rice leafhopper larvae (Test Example 1); format: in vivo; conditions: Nephotettix cincticeps, read-out: Mortality (%), 500 ppm
Text: (§1) Five rice seedlings having a height of about 7 cm were dipped, for 10 seconds, into aqueous dilutions of wettable powder each containing a predetermined concentration of each sample compound, prepared in accordance with the procedure as described in Formulation Example 1. After air drying, the roots of the five rice seedlings were wrapped with sanitary cotton dampened with water, and placed in a glass cylinder having a diameter of 3 cm and a height of 20 cm. Ten second instar larvae of a green rice leafhopper which had acquired resistance to chemicals were released into each glass cylinder. The cylinder was allowed to stand in a room maintained at 26° C. The mortality of the larvae was examined 48 hours after treatment.

[2] = tested on: brown rice planthopper which had acquired resistance to chemicals; assay: Rice seedling dip test, mortality of resistant brown rice planthopper larvae (Test Example 2); format: in vivo; conditions: read-out: Mortality (%), 500 ppm
Text: as §1, with “brown” for “green”, “planthopper” for “leafhopper”

[3] = 500 ppm wettable powder dilution, rice seedlings dipped 10 seconds, second instar larvae, 48 hours after treatment, 26° C.

Row | SMILES | mortality at 500 ppm ([1]; 48 h) | mortality at 500 ppm ([2]; 48 h) | mortality at 500 ppm [1, 3] | mortality at 500 ppm [2, 3]
1 | Cc1cc(OP(C)(C)=S)ccc1[N+](=O)[O-] [Comparative Compound, reference compound] | 70% | 65% |  | 
2 | CCN1CNC(=N[N+](=O)[O-])N(Cc2ccc(Cl)nc2)C1 [Compound No. 2, 1-(2-chloro-5-pyridylmethyl)-5-ethyl-2-nitroiminohexahydro-1,3,5-triazine] |  |  | 100% | 100%
3 | CN1CNC(=N[N+](=O)[O-])N(Cc2ccc(Cl)nc2)C1 [compound 1, 1-(2-chloro-5-pyridylmethyl)-5-methyl-2-nitroiminohexahydro-1,3,5-triazine] |  |  | 100% | 100%
4 | CN1CN(C)C(=N[N+](=O)[O-])N(Cc2ccc(Cl)nc2)C1 [compound 5, 1-(2-chloro-5-pyridylmethyl)-3,5-dimethyl-2-nitroiminohexahydro-1,3,5-triazine] |  |  | 100% | 100%
5 | CN1CN(C)C(=N[N+](=O)[O-])N(Cc2cnc(Cl)s2)C1 [compound 6, 1-(2-chloro-5-thiazolylmethyl)-3,5-dimethyl-2-nitroiminohexahydro-1,3,5-triazine] |  |  | 100% | 100%
